# From patent publication US11083725B2 (priority 2014, dated 2021)
# Test system: NHBE cells
# Experiment: Biolog metabolic array: substrate use by NHBE cells with or without CA09 infection
# Assay type: cell-based, human
# Details: for Substrate use, 590 nm absorbance normalized to zero hour, 0 hr: Biolog PMM2, 0 hr; for Substrate use, 590 nm absorbance normalized to zero hour, 1 hr: Biolog PMM2, 1 hr; for Substrate use, 590 nm absorbance normalized to zero hour, 5 hr: Biolog PMM2, 5 hr; for Substrate use, 590 nm absorbance normalized to zero hour, 7 hr: Biolog PMM2, 7 hr
# [1] = Control (uninfected) NHBE cells
# [2] = Virus (CA09-infected, MOI 1) NHBE cells
# [3] = Virus: CA09-infected NHBE cells, MOI 1, Biolog PMM2
# [4] = Virus (CA09, MOI 1) infected NHBE cells
SMILES,"590 nm absorbance normalized to zero hour (substrate use), 0 hr [1]","590 nm absorbance normalized to zero hour (substrate use), 1 hr [1]","590 nm absorbance normalized to zero hour (substrate use), 2 hr [1]","590 nm absorbance normalized to zero hour (substrate use), 3 hr [1]","590 nm absorbance normalized to zero hour (substrate use), 4 hr [1]","590 nm absorbance normalized to zero hour (substrate use), 6 hr [1]","590 nm absorbance normalized to zero hour (substrate use), 8 hr [1]","590 nm absorbance normalized to zero hour (substrate use), 9 hr [1]","590 nm absorbance normalized to zero hour (substrate use), 10 hr [1]","590 nm absorbance normalized to zero hour (substrate use), 11 hr [1]","Substrate use, 590 nm absorbance normalized to zero hour, 0 hr [1]","Substrate use, 590 nm absorbance normalized to zero hour, 1 hr [1]","Substrate use, 590 nm absorbance normalized to zero hour, 5 hr [1]","Substrate use, 590 nm absorbance normalized to zero hour, 7 hr [1]","590 nm absorbance normalized to zero hour (substrate use), 0 hr [2]","590 nm absorbance normalized to zero hour (substrate use), 1 hr [2]","590 nm absorbance normalized to zero hour (substrate use), 2 hr [2]","590 nm absorbance normalized to zero hour (substrate use), 3 hr [2]","590 nm absorbance normalized to zero hour (substrate use), 4 hr [2]","590 nm absorbance normalized to zero hour (substrate use), 6 hr [2]",other results
C[C@@H](O)CC(=O)O [b-Hydroxy-Butyric Acid],1.00,1.65,2.08,2.16,2.31,2.37,2.68,2.90,3.02,7.04,1.00,1.65,2.75,2.49,1.00,1.78,2.31,2.61,2.77,3.34,"590 nm absorbance normalized to zero hour (substrate use), 5 hr [2]: 3.16; 590 nm absorbance normalized to zero hour (substrate use), 7 hr [2]: 3.47; 590 nm absorbance normalized to zero hour (substrate use), 8 hr [2]: 3.62; 590 nm absorbance normalized to zero hour (substrate use), 9 hr [2]: 3.79; 590 nm absorbance normalized to zero hour (substrate use), 10 hr [2]: 3.87; 590 nm absorbance normalized to zero hour (substrate use), 11 hr [2]: 3.29; 590 nm absorbance normalized to zero hour (substrate use), 0 hr [3]: 1.00; 590 nm absorbance normalized to zero hour (substrate use), 1 hr [3]: 1.78; 590 nm absorbance normalized to zero hour (substrate use), 2 hr [3]: 2.31; 590 nm absorbance normalized to zero hour (substrate use), 3 hr [3]: 2.61; 590 nm absorbance normalized to zero hour (substrate use), 4 hr [3]: 2.77; 590 nm absorbance normalized to zero hour (substrate use), 5 hr [3]: 3.16; 590 nm absorbance normalized to zero hour (substrate use), 6 hr [3]: 3.34; 590 nm absorbance normalized to zero hour (substrate use), 7 hr [3]: 3.47; 590 nm absorbance normalized to zero hour (substrate use), 8 hr [3]: 3.62; 590 nm absorbance normalized to zero hour (substrate use), 9 hr [3]: 3.79; 590 nm absorbance normalized to zero hour (substrate use), 10 hr [3]: 3.87; 590 nm absorbance normalized to zero hour (substrate use), 11 hr [3]: 3.29"
CO[C@@H]1O[C@H](CO)[C@H](O)[C@H](O)[C@H]1O [b-Methyl-D-Galactoside],1.00,0.52,0.68,0.78,0.87,1.28,1.24,1.36,1.54,1.61,1.00,0.52,1.05,1.17,1.00,0.74,0.95,1.11,1.18,1.45,"590 nm absorbance normalized to zero hour (substrate use), 5 hr [2]: 1.36; 590 nm absorbance normalized to zero hour (substrate use), 7 hr [2]: 1.52; 590 nm absorbance normalized to zero hour (substrate use), 8 hr [2]: 1.60; 590 nm absorbance normalized to zero hour (substrate use), 9 hr [2]: 1.76; 590 nm absorbance normalized to zero hour (substrate use), 10 hr [2]: 1.81; 590 nm absorbance normalized to zero hour (substrate use), 11 hr [2]: 1.96; 590 nm absorbance normalized to zero hour (substrate use), 0 hr [3]: 1.00; 590 nm absorbance normalized to zero hour (substrate use), 1 hr [3]: 0.74; 590 nm absorbance normalized to zero hour (substrate use), 2 hr [3]: 0.95; 590 nm absorbance normalized to zero hour (substrate use), 3 hr [3]: 1.11; 590 nm absorbance normalized to zero hour (substrate use), 4 hr [3]: 1.18; 590 nm absorbance normalized to zero hour (substrate use), 5 hr [3]: 1.36; 590 nm absorbance normalized to zero hour (substrate use), 6 hr [3]: 1.45; 590 nm absorbance normalized to zero hour (substrate use), 7 hr [3]: 1.52; 590 nm absorbance normalized to zero hour (substrate use), 8 hr [3]: 1.60; 590 nm absorbance normalized to zero hour (substrate use), 9 hr [3]: 1.76; 590 nm absorbance normalized to zero hour (substrate use), 10 hr [3]: 1.81; 590 nm absorbance normalized to zero hour (substrate use), 11 hr [3]: 1.96"
CO[C@@H]1O[C@H](CO)[C@@H](O)[C@H](O)[C@H]1O [b-Methyl-D-Glucoside],1.00,1.32,1.80,1.84,2.02,1.04,3.05,3.33,3.70,4.24,1.00,1.32,2.32,2.85,1.00,2.00,2.80,3.24,3.45,4.32,"Substrate use, 590 nm absorbance normalized to zero hour, 0 hr [4]: 1.00; Substrate use, 590 nm absorbance normalized to zero hour, 1 hr [4]: 2.00; Substrate use, 590 nm absorbance normalized to zero hour, 5 hr [4]: 3.99; Substrate use, 590 nm absorbance normalized to zero hour, 7 hr [4]: 4.57; 590 nm absorbance normalized to zero hour (substrate use), 8 hr [2]: 4.86; 590 nm absorbance normalized to zero hour (substrate use), 9 hr [2]: 5.41; 590 nm absorbance normalized to zero hour (substrate use), 10 hr [2]: 5.67; 590 nm absorbance normalized to zero hour (substrate use), 11 hr [2]: 6.22"
CO[C@@H]1OC[C@@H](O)[C@H](O)[C@H]1O [b-Methyl-D-Xyloside],1.00,1.53,6.40,1.59,1.73,1.14,4.02,2.33,2.61,3.03,1.00,1.53,2.08,4.46,1.00,1.92,2.38,2.79,2.82,3.28,"590 nm absorbance normalized to zero hour (substrate use), 5 hr [2]: 3.12; 590 nm absorbance normalized to zero hour (substrate use), 7 hr [2]: 3.39; 590 nm absorbance normalized to zero hour (substrate use), 8 hr [2]: 3.52; 590 nm absorbance normalized to zero hour (substrate use), 9 hr [2]: 3.77; 590 nm absorbance normalized to zero hour (substrate use), 10 hr [2]: 3.87; 590 nm absorbance normalized to zero hour (substrate use), 11 hr [2]: 4.01; 590 nm absorbance normalized to zero hour (substrate use), 0 hr [3]: 1.00; 590 nm absorbance normalized to zero hour (substrate use), 1 hr [3]: 1.92; 590 nm absorbance normalized to zero hour (substrate use), 2 hr [3]: 2.38; 590 nm absorbance normalized to zero hour (substrate use), 3 hr [3]: 2.79; 590 nm absorbance normalized to zero hour (substrate use), 4 hr [3]: 2.82; 590 nm absorbance normalized to zero hour (substrate use), 5 hr [3]: 3.12; 590 nm absorbance normalized to zero hour (substrate use), 6 hr [3]: 3.28; 590 nm absorbance normalized to zero hour (substrate use), 7 hr [3]: 3.39; 590 nm absorbance normalized to zero hour (substrate use), 8 hr [3]: 3.52; 590 nm absorbance normalized to zero hour (substrate use), 9 hr [3]: 3.77; 590 nm absorbance normalized to zero hour (substrate use), 10 hr [3]: 3.87; 590 nm absorbance normalized to zero hour (substrate use), 11 hr [3]: 4.01"
